From article PMC3044687, “The C-Terminal Domain of the Arabinosyltransferase Mycobacterium tuberculosis EmbC Is a Lectin-Like Carbohydrate Binding Module” (PLoS Pathogens, 2011)

Tests used:
Type in all cases: binding
EmbC^CT(W985A) = EmbC^CT(W985A) (Mycobacterium tuberculosis, UniProt P9WNL5, W985A)
EmbC^CT(W868A) = EmbC^CT(W868A) (Mycobacterium tuberculosis, UniProt P9WNL5, W868A)
EmbC^CT(N740A) = EmbC^CT(N740A) (Mycobacterium tuberculosis, UniProt P9WNL5, N740A)
EmbC^CT(H911A) = EmbC^CT(H911A) (Mycobacterium tuberculosis, UniProt P9WNL5, H911A)

| Structure (SMILES) | Fmax (EmbC^CT(W985A)) | effect of W985A mutation on ligand binding (in words) (EmbC^CT(W985A)) | effect of W868A mutation on ligand binding (in words) (EmbC^CT(W868A)) | Fmax (EmbC^CT(N740A)) | Fmax (EmbC^CT(H911A)) | Fmax (EmbC^CT(W868A)) |
| --- | --- | --- | --- | --- | --- | --- |
| CCCCCCCCO[C@H]1O[C@H](CO[C@H]2O[C@H](CO[C@H]3O[C@H](CO[C@H]4O[C@H](CO[C@H]5O[C@H](CO)[C@@H](O)[C@@H]5O)[C@@H](O)[C@@H]4O)[C@@H](O)[C@@H]3O)[C@@H](O)[C@@H]2O)[C@@H](O)[C@@H]1O [Ara(1→5)4Ara-O-C8, [α-D-Araf-(1→5)]4-α-D-Araf-O-(CH2)7CH3] | 0.164 | insensitive | completely inhibited |  |  |  |
| CCCCCCCCO[C@H]1O[C@H](CO[C@H]2O[C@H](CO)[C@@H](O)[C@@H]2O)[C@@H](O)[C@@H]1O [Ara(1→5)Ara-O-C8, α-D-Araf-(1→5)-α-D-Araf-O-(CH2)7CH3] |  | virtually abrogated binding | preserved binding | 0.141 | 0.170 | 0.162 |
